Measured values reported in patent US12077503B2, “Substituted cyclic amides and their use as herbicides” (FMC CORPORATION, priority 2015, dated 2024).

How the values were obtained:
Format in all cases: in vivo
[1] = system: giant foxtail (Setaria faberi); experiment: Test G Pre-Emergence Protocol; conditions: Setaria faberi, pre-emergence, 312 h, evaluated after 13 days; for pest or weed control at 15.625 g/ha: 15.625 g ai/ha; for pest or weed control at 15.625 g/ha / pest or weed control at 250 g/ha: read-out: Foxtail, Giant damage rating (100=total damage to plant; 0=no damage to plant); for pest or weed control at 62.5 g/ha: 62.5 g ai/ha, 100=total damage to plant, 0=no damage to plant, read-out: plant damage rating, Foxtail, Giant; for pest or weed control at 250 g/ha: 250 g ai/ha
Summary of the method: (§1)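 Under a 24/16° C day/night regime with 14 h light and 65% humidity, sown pots were sprayed after one day with compound (15.625, 62.5 or 250 g/ha; 50:50 acetone/water, 0.5% Tween 20). Damage was assessed visually 13 days later, 0 to 100.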

[2] = system: ivy-leaved morning glory (Ipomoea hederacea); experiment: Test G Pre-Emergence Protocol; conditions: Ipomoea, pre-emergence, 312 h, evaluated after 13 days; for pest or weed control at 15.625 g/ha: 15.625 g ai/ha, read-out: Morning-glory, Ivy-leaved damage rating (100=total damage to plant; 0=no damage to plant); for pest or weed control at 62.5 g/ha: 62.5 g ai/ha, 100=total damage to plant, 0=no damage to plant, read-out: plant damage rating, Morningglory, Ivy-leaved; for pest or weed control at 250 g/ha: 250 g ai/ha, read-out: Morningglory, Ivy-leaved damage rating (100=total damage to plant; 0=no damage to plant)
Summary of the method: as §1

[3] = system: velvetleaf (Abutilon theophrasti); experiment: Test G Pre-Emergence Protocol; conditions: Abutilon theophrasti, pre-emergence, 312 h, evaluated after 13 days; for pest or weed control at 15.625 g/ha: 15.625 g ai/ha; for pest or weed control at 15.625 g/ha / pest or weed control at 250 g/ha: read-out: Velvetleaf damage rating (100=total damage to plant; 0=no damage to plant); for pest or weed control at 62.5 g/ha: 62.5 g ai/ha, 100=total damage to plant, 0=no damage to plant, read-out: plant damage rating, Velvetleaf; for pest or weed control at 250 g/ha: 250 g ai/ha
Summary of the method: as §1

[4] = system: redroot pigweed (Amaranthus retroflexus); experiment: Test G Pre-Emergence Protocol; conditions: Amaranthus retroflexus, pre-emergence, 312 h, evaluated after 13 days; for pest or weed control at 15.625 g/ha: 15.625 g ai/ha; for pest or weed control at 15.625 g/ha / pest or weed control at 250 g/ha: read-out: Pigweed, Redroot damage rating (100=total damage to plant; 0=no damage to plant); for pest or weed control at 62.5 g/ha: 62.5 g ai/ha, 100=total damage to plant, 0=no damage to plant, read-out: plant damage rating, Pigweed, Redroot; for pest or weed control at 250 g/ha: 250 g ai/ha
Summary of the method: as §1

[5] = system: barnyardgrass (Echinochloa crus-galli); experiment: Test G Pre-Emergence Protocol; conditions: Echinochloa crus-galli, pre-emergence, 312 h, evaluated after 13 days; for pest or weed control at 15.625 g/ha: 15.625 g ai/ha, read-out: Barnyard grass damage rating (100=total damage to plant; 0=no damage to plant); for pest or weed control at 62.5 g/ha: 62.5 g ai/ha, 100=total damage to plant, 0=no damage to plant, read-out: plant damage rating, Barnyardgrass; for pest or weed control at 250 g/ha: 250 g ai/ha, read-out: Barnyardgrass damage rating (100=total damage to plant; 0=no damage to plant)
Summary of the method: as §1

corn (Zea mays) [6] = experiment: Test G Pre-Emergence Protocol; conditions: Zea mays, pre-emergence, 312 h, evaluated after 13 days; for plant injury at 15.625 g/ha: 15.625 g ai/ha; for plant injury at 15.625 g/ha / plant injury at 250 g/ha: read-out: Corn damage rating (100=total damage to plant; 0=no damage to plant); for plant injury at 62.5 g/ha: 62.5 g ai/ha, 100=total damage to plant, 0=no damage to plant, read-out: plant damage rating, Corn; for plant injury at 250 g/ha: 250 g ai/ha
Summary of the method: as §1

[7] = system: giant foxtail (Setaria faberi); experiment: Test G Post-Emergence Protocol; conditions: Setaria faberi, post-emergence, 312 h; for pest or weed control at 15.625 g/ha: 15.625 g ai/ha, evaluated after 13 days (100=total damage to plant; 0=no damage to plant), read-out: Foxtail, Giant damage rating; for pest or weed control at 62.5 g/ha: 62.5 g ai/ha, read-out: Foxtail, Giant damage rating (100=total damage to plant; 0=no damage to plant); for pest or weed control at 62.5 g/ha / pest or weed control at 250 g/ha: evaluated after 13 days; for pest or weed control at 250 g/ha: 250 g ai/ha, read-out: damage to plant, Foxtail, Giant (100=total damage to plant; 0=no damage to plant)
Summary of the method: (§2)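 Values are percent visual injury at 13 days after treatment (0 none, 100 total). Treatment was a post-emergence spray at 15.625, 62.5 or 250 g/ha on 8-day-old pot plants kept at 24/16 °C.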

[8] = system: ivy-leaved morning glory (Ipomoea hederacea); experiment: Test G Post-Emergence Protocol; conditions: Ipomoea, post-emergence, 312 h; for pest or weed control at 15.625 g/ha: 15.625 g ai/ha, evaluated after 13 days (100=total damage to plant; 0=no damage to plant), read-out: Morningglory, Ivy-leaved damage rating; for pest or weed control at 62.5 g/ha: 62.5 g ai/ha, read-out: Morningglory, Ivy-leaved damage rating (100=total damage to plant; 0=no damage to plant); for pest or weed control at 62.5 g/ha / pest or weed control at 250 g/ha: evaluated after 13 days; for pest or weed control at 250 g/ha: 250 g ai/ha, read-out: damage to plant, Morningglory, Ivy-leaved (100=total damage to plant; 0=no damage to plant)
Summary of the method: as §2

[9] = system: velvetleaf (Abutilon theophrasti); experiment: Test G Post-Emergence Protocol; conditions: Abutilon theophrasti, post-emergence, 312 h; for pest or weed control at 15.625 g/ha: 15.625 g ai/ha, evaluated after 13 days (100=total damage to plant; 0=no damage to plant), read-out: Velvetleaf damage rating; for pest or weed control at 62.5 g/ha: 62.5 g ai/ha, read-out: Velvetleaf damage rating (100=total damage to plant; 0=no damage to plant); for pest or weed control at 62.5 g/ha / pest or weed control at 250 g/ha: evaluated after 13 days; for pest or weed control at 250 g/ha: 250 g ai/ha, read-out: damage to plant, Velvetleaf (100=total damage to plant; 0=no damage to plant)
Summary of the method: as §2

[10] = system: redroot pigweed (Amaranthus retroflexus); experiment: Test G Post-Emergence Protocol; conditions: Amaranthus retroflexus, post-emergence, 312 h; for pest or weed control at 15.625 g/ha: 15.625 g ai/ha, evaluated after 13 days (100=total damage to plant; 0=no damage to plant), read-out: Pigweed, Redroot damage rating; for pest or weed control at 62.5 g/ha: 62.5 g ai/ha, read-out: Pigweed, Redroot damage rating (100=total damage to plant; 0=no damage to plant); for pest or weed control at 62.5 g/ha / pest or weed control at 250 g/ha: evaluated after 13 days; for pest or weed control at 250 g/ha: 250 g ai/ha, read-out: damage to plant, Pigweed, Redroot (100=total damage to plant; 0=no damage to plant)
Summary of the method: as §2

[11] = system: barnyardgrass (Echinochloa crus-galli); experiment: Test G Post-Emergence Protocol; conditions: Echinochloa crus-galli, post-emergence, 312 h; for pest or weed control at 15.625 g/ha: 15.625 g ai/ha, evaluated after 13 days (100=total damage to plant; 0=no damage to plant), read-out: Barnyardgrass damage rating; for pest or weed control at 62.5 g/ha: 62.5 g ai/ha, read-out: Barnyardgrass damage rating (100=total damage to plant; 0=no damage to plant); for pest or weed control at 62.5 g/ha / pest or weed control at 250 g/ha: evaluated after 13 days; for pest or weed control at 250 g/ha: 250 g ai/ha, read-out: damage to plant, Barnyardgrass (100=total damage to plant; 0=no damage to plant)
Summary of the method: as §2

corn (Zea mays) [12] = experiment: Test G Post-Emergence Protocol; conditions: Zea mays, post-emergence, 312 h; for plant injury at 15.625 g/ha: 15.625 g ai/ha, evaluated after 13 days (100=total damage to plant; 0=no damage to plant), read-out: Corn damage rating; for plant injury at 62.5 g/ha: 62.5 g ai/ha, read-out: Corn damage rating (100=total damage to plant; 0=no damage to plant); for plant injury at 62.5 g/ha / plant injury at 250 g/ha: evaluated after 13 days; for plant injury at 250 g/ha: 250 g ai/ha, read-out: damage to plant, Corn (100=total damage to plant; 0=no damage to plant)
Summary of the method: as §2

Row | SMILES | pest or weed control at 15.625 g/ha [1] [%] | pest or weed control at 62.5 g/ha [1] [%] | pest or weed control at 250 g/ha [1] [%] | pest or weed control at 15.625 g/ha [2] [%] | pest or weed control at 62.5 g/ha [2] [%] | pest or weed control at 250 g/ha [2] [%] | pest or weed control at 15.625 g/ha [3] [%] | pest or weed control at 62.5 g/ha [3] [%] | pest or weed control at 250 g/ha [3] [%] | pest or weed control at 15.625 g/ha [4] [%] | pest or weed control at 62.5 g/ha [4] [%] | pest or weed control at 250 g/ha [4] [%] | pest or weed control at 15.625 g/ha [5] [%] | pest or weed control at 62.5 g/ha [5] [%] | pest or weed control at 250 g/ha [5] [%] | plant injury at 15.625 g/ha (corn (Zea mays) [6]) [%] | plant injury at 62.5 g/ha (corn (Zea mays) [6]) [%] | plant injury at 250 g/ha (corn (Zea mays) [6]) [%] | pest or weed control at 15.625 g/ha [7] [%] | pest or weed control at 62.5 g/ha [7] [%] | also measured
1 | CN1C[C@@H](c2ccc(C(F)(F)F)cc2)[C@H](C(=O)Nc2c[nH]nc2Cl)C1=O (racemic) [Compound 1633] | 0 | 0 | 0 | 0 | 0 | 0 | 0 | 0 | 0 | 0 | 0 | 0 | 0 | 0 | 0 | 0 | 0 | 0 | 0 | 0 | pest or weed control at 250 g/ha [7]: 0%; pest or weed control at 15.625 g/ha [8]: 0%; pest or weed control at 62.5 g/ha [8]: 0%; pest or weed control at 250 g/ha [8]: 0%; pest or weed control at 15.625 g/ha [9]: 0%; pest or weed control at 62.5 g/ha [9]: 0%; pest or weed control at 250 g/ha [9]: 0%; pest or weed control at 15.625 g/ha [10]: 0%; pest or weed control at 62.5 g/ha [10]: 0%; pest or weed control at 250 g/ha [10]: 0%; pest or weed control at 15.625 g/ha [11]: 0%; pest or weed control at 62.5 g/ha [11]: 0%; pest or weed control at 250 g/ha [11]: 0%; plant injury at 15.625 g/ha (corn (Zea mays) [12]): 0%; plant injury at 62.5 g/ha (corn (Zea mays) [12]): 0%; plant injury at 250 g/ha (corn (Zea mays) [12]): 0%
2 | Cc1cncc(NC(=O)[C@@H]2C(=O)N(C)C[C@H]2c2ccc(C(F)(F)F)cc2)n1 (racemic) [Compound 1647] | 0 | 0 | 70 | 0 | 0 | 0 | 0 | 0 | 10 | 0 | 0 | 20 | 0 | 0 | 0 | 0 | 0 | 0 | 0 | 30 | pest or weed control at 250 g/ha [7]: 70%; pest or weed control at 15.625 g/ha [8]: 0%; pest or weed control at 62.5 g/ha [8]: 0%; pest or weed control at 250 g/ha [8]: 20%; pest or weed control at 15.625 g/ha [9]: 0%; pest or weed control at 62.5 g/ha [9]: 0%; pest or weed control at 250 g/ha [9]: 40%; pest or weed control at 15.625 g/ha [10]: 0%; pest or weed control at 62.5 g/ha [10]: 0%; pest or weed control at 250 g/ha [10]: 30%; pest or weed control at 15.625 g/ha [11]: 0%; pest or weed control at 62.5 g/ha [11]: 0%; pest or weed control at 250 g/ha [11]: 50%; plant injury at 15.625 g/ha (corn (Zea mays) [12]): 0%; plant injury at 62.5 g/ha (corn (Zea mays) [12]): 0%; plant injury at 250 g/ha (corn (Zea mays) [12]): 10%
